# Assay results as given in patent US6955873B1, “Diagnosis and treatment system for reward deficiency syndrome (RDS) and related behaviors” (priority 1999, dated 2005).
# Where two headings read alike, the source gives them in different places.
# Tests used:
# [1] = test system: obese subjects genotyped for the dopamine D2 receptor gene (DRD2); assay: Chromium picolinate body composition response as a function of DRD2 Taq1 A1 genotype; format: in vivo, human
# Text: In order to resolve the issue of non-responders, the inventor decided to test the hypothesis that typing the obese patients by genotyping the DRD2 gene prior to treatment with CrP would result in a differential treatment outcome. […] One of us (KB) predicted carriers of the DRD2 A2 allele would retain the positive metabolic effects of P, but in contrast the DRD2 A1 carriers, because there is a proclivity to increased carbohydrate binging, would possibly mask the metabolic effects of CrP on weight loss and change in body fat attenuating any positive effects. One prophetic example as described earlier (see page 48):
# The inventor genotyped 130 obese subjects for the dopamine D2 receptor gene (DRD2) utilizing standard PCR techniques. The subjects were assessed for scale weight and for percent body fat using dual energy X-ray absorptiometry (DEXAR). The subjects were divided into matched placebo and chromium picolinate (CrP) groups (400μg. per day). The sample was separated into two independent groups; those with either an A1/A1 or A1/A2 allele and those with only the A2/A2 allelic pattern. Each of these groups was tested separately for differences between placebo and treatment means for a variety of measures of weight change. These measures consisted of calculations of the percent of fat weight change; the change in fat weight; the change in body weight; the change in free mass, the percent change of fat weight; the body composition index; and the body weight change in kilograms.
# [2] = test system: patients following weight reduction; details: after six months; cited from earlier work
# over-eating patients [3] = details: 200 and 400 mcg, compared with placebo; cited from earlier work
# over-eating patients [4] = details: 400 mcg vs placebo, cited from earlier work
# [5] = test system: obese subjects genotyped for the dopamine D2 receptor gene (DRD2); details: 400 mcg of CrP/day, cited from earlier work
# young obese women = details: cited from earlier work
substance,measurement,setting,value
Chromium Picolinate,"body weight change in kilograms, treatment vs placebo","[1]; A2/A2, p<0.012",significant
same,"change in fat weight, treatment vs placebo","[1]; A2/A2, p<0.041",significant
same,"percent change in weight, treatment vs placebo","[1]; A2/A2, p<0.044",significant
same,responsiveness to the effects of CrP,"[1]; DRD2 A2 allele carriers versus DRD2 A1 allele carriers, 400 ug per day",more responsive
same,"any parameter of weight change, treatment vs placebo",[1]; subjects possessing a DRD2 A1 allele,no significance
same,non-fat related weight loss,[2],lean body mass and avoided non-fat related weight
same,changes in Body Mass composition indicies,over-eating patients [3],200 and 400 mcg of CrP brought about significant
same,reduction in body fat,over-eating patients [4]; p < 0.001,"greater reduction in body fat (p < 0.001), significantly"
same,weight lost,over-eating patients [4]; p < 0.001,"group, 400 mcg CrP group lost significantly more"
same,body composition,over-eating patients [4]; p < 0.004,improve body composition (p < 0.004).
same,body fat lost,over-eating patients [4]; p < 0.004,"group, 400 mcg CrP group lost significantly more"
same,"changes in fat weight, body weight, percent change in weight, body weight changes in kgms","[5]; A1/A2 and A1/A1 carriers, listed as CrP",non-
same,"changes in fat weight, body weight, percent change in weight, body weight changes in kgms",[5]; A2/A2 group,"changes in kgms were all significant in A2/A2 group,"
same,weight gain,"young obese women; CrP supplementation alone, 43 pts, 63 days",CrP supplementation resulted in significant weight
same,weight loss,young obese women; exercise training combined with CrP supplementation,supplementation resulted in significant weight loss
